Assays:
Format in all cases: cell-based
Lovo cells (G13D) = assay: Cell viability assay (CellTiter-Glo), Lovo cells; conditions: Homo sapiens, 72 h; Lovo cells, 3 days incubation, CellTiter-Glo luminescence; read-out: Inhibition of Cancerous Cells IC50 Lovo (G13D)
Outline: (§1)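 Seeding used reduced-serum (2.5% FBS) medium, RPMI 1640 for H358 and SW48 and DMEM for Lovo and SW480. Compound or DMSO was applied for 3 days at 37 °C; CellTiter-Glo was added and luminescence recorded after 10 min shaking.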

SW480 cells (G12V) = assay: Cell viability assay (CellTiter-Glo), SW480 cells; conditions: Homo sapiens, 72 h; SW480 cells, 3 days incubation, CellTiter-Glo luminescence; read-out: Inhibition of Cancerous Cells IC50 SW480 (G12V)
Outline: as §1

SW48 cells (wt) = assay: Cell viability assay (CellTiter-Glo), SW48 cells; conditions: Homo sapiens, 72 h; SW48 cells, 3 days incubation, CellTiter-Glo luminescence; read-out: Inhibition of Cancerous Cells IC50 SW48 (wt)
Outline: as §1

AsPC-1 cells (G12D) = assay: Cell viability assay (CellTiter-Glo), AsPC-1 cells; conditions: Homo sapiens, ASPC1, 72 h, 3 days incubation, CellTiter-Glo luminescence, read-out: Inhibition of Cancerous Cells IC50 AsPC-1 (G12D)
Experimental: H358, H23, SW48, and AsPC-1 cells were cultured in RPMI 1640 media supplemented with 10% fetal bovine serum, streptomycin, and penicillin. Lovo and SW480 cells were cultured in DMEM media supplemented with 10% fetal bovine serum, streptomycin, and penicillin. The cell lines were plated in their respective medium supplemented with 2.5% fetal bovine serum, streptomycin, and penicillin. All cell lines were plated in white walled 96-well plates at 2,000 cells/well or 384-well plates at 500 cells/well, except Lovo, which were plated at 4,000 or 1,000 cells/well, respectively. The cells were incubated in DMSO (control) or a compound for 3 days at 37° C. under 5% CO2. A CELLTITER-GLO® reagent (100 μL) was then added to each well. After a 10 min incubation with shaking, luminescence was measured using an ENVISION® multimode plate reader.

H358 cells (G12C) = assay: Cell viability assay (CellTiter-Glo), H358 cells; conditions: Homo sapiens, NCI-H358, 72 h; H358 cells, 3 days incubation, CellTiter-Glo luminescence; read-out: Inhibition of Cancerous Cells IC50 H358 (G12C)
Outline: as §1

Structure (SMILES)	IC50 (Lovo cells (G13D)) [nM]	IC50 (SW480 cells (G12V)) [nM]	IC50 (SW48 cells (wt)) [nM]	IC50 (AsPC-1 cells (G12D)) [nM]	IC50 (H358 cells (G12C)) [nM]
COc1cc2c(N[C@H](C)c3cccc(Br)c3)nc(C)nc2cc1OCCN1CCN(CCN2CCC(c3cc(F)cc4c3CN(C3CCC(=O)NC3=O)C4=O)CC2)CC1 (stereo partly drawn) [Compound A66, 3-(4-(1-(2-(4-(2-((4-(((R)-1-(3-Bromophenyl)ethyl)amino)-6-methoxy-2-methyl-quinazolin-7-yl)oxy)ethyl)piperazin-1-yl)ethyl)piperidin-4-yl)-6-fluoro-1-oxoisoindolin-2-yl)piperidine-2,6-dione]	5800	9700	3800	> 10000	8000
COc1cc2c(N[C@H](C)c3cccc(Br)c3)nc(C)nc2cc1OCCN1CCN(CCN2CCC(c3cc4c(cc3F)C(=O)N(C3CCC(=O)NC3=O)C4)CC2)CC1 (stereo partly drawn) [Compound A67, 3-(5-(1-(2-(4-(2-((4-(((R)-1-(3-Bromophenyl)ethyl)amino)-6-methoxy-2-methyl-quinazolin-7-yl)oxy)ethyl)piperazin-1-yl)ethyl)piperidin-4-yl)-6-fluoro-1-oxoisoindolin-2-yl)piperidine-2,6-dione]	1000	2700	1100	2100	1700
COc1cc2c(N[C@@H](C)c3cc(N)cc(C(F)(F)F)c3)nc(C)nc2cc1OCCCCCCCN1CCC(c2cc3c(cc2F)C(=O)N(C2CCC(=O)NC2=O)C3)CC1 (stereo partly drawn) [Compound A68, 3-(5-(1-(7-((4-(((S)-1-(3-Amino-5-(trifluoromethyl)phenyl)ethyl)amino)-6-methoxy-2-methylquinazolin-7-yl)oxy)heptyl)piperidin-4-yl)-6-fluoro-1-oxoisoindolin-2-yl)piperidine-2,6-dione]	630	530	500	1500	690
CN[C@@H](C)C(=O)N[C@H](C(=O)N1CCC[C@H]1c1nc(C(=O)c2cccc(OCCCCCCOc3cc4nc(C)nc(N[C@H](C)c5cccc(Br)c5)c4cc3OC)c2)cs1)C1CCCCC1 [Compound B1, (S)—N—((S)-2-((S)-2-(4-(3-((6-((4-(((R)-1-(3-bromophenyl)ethyl)amino)-6-methoxy-2-methylquinazolin-7-yl)oxy)hexyl)oxy)benzoyl)thiazol-2-yl)pyrrolidin-1-yl)-1-cyclohexyl-2-oxoethyl)-2-(methylamino)propanamide]	720	980	1100	3000	2400

Now from value to compound:

IC50 (Lovo cells (G13D)) [nM]	IC50 (SW480 cells (G12V)) [nM]	IC50 (SW48 cells (wt)) [nM]	IC50 (AsPC-1 cells (G12D)) [nM]	IC50 (H358 cells (G12C)) [nM]	Structure (SMILES)
2600	3100	1200	5500	> 10000	COc1cc2c(N[C@H](C)c3cccc(Br)c3)nc(C)nc2cc1OCCCCCCCCCCCCc1scc2c1CN(C1CCC(=O)NC1=O)C2=O (stereo partly drawn) [Compound A64, 3-(1-(12-((4-(((R)-1-(3-Bromophenyl)ethyl)amino)-6-methoxy-2-methyl-quinazolin-7-yl)oxy)dodecyl)-4-oxo-4H-thieno[3,4-c]pyrrol-5(6H)-yl)piperidine-2,6-dione]
1100	1100	970	3300	1600	COc1cc2c(N[C@H](C)c3cccc(Br)c3)nc(C)nc2cc1OCCN1CCC(CN2CCC(c3cc(F)cc4c3CN(C3CCC(=O)NC3=O)C4=O)CC2)CC1 (stereo partly drawn) [Compound A65, 3-(4-(1-((1-(2-((4-(((R)-1-(3-Bromophenyl)ethyl)amino)-6-methoxy-2-methyl-quinazolin-7-yl)oxy)ethyl)piperidin-4-yl)methyl)piperidin-4-yl)-6-fluoro-1-oxoisoindolin-2-yl)-piperidine-2,6-dione]

Source: patent US20240025863A1, “SOS1 PROTEIN DEGRADERS, PHARMACEUTICAL COMPOSITIONS THEREOF, AND THEIR THERAPEUTIC APPLICATIONS” (BioTheryX, Inc., priority 2020, published 2024)
